One series concerns Staph. aureus 1414. As to the kind of experiment: Antimicrobic activity, in vitro (CIM). The format is cell-based, Staph. aureus 1414 (ATCC). The settings on record: Staph. aureus 1414, in vitro. From the text:
(§1) Chim.Farm.119, p.181, 1980.
(§2) Antimicrobic activity, in vitro.
(§3) CIM^(1) values (mcg/ml)
(§4) ^(1) CIM = Mic = Minimal inhibitory concentration
(§5) ^(3) The 4digit strains are ATCC's

Another series concerns Staph. aureus 6538. As to the kind of experiment: Antimicrobic activity, in vitro (CIM). The format is cell-based, Staph. aureus 6538 (ATCC). The conditions noted are these: Staph. aureus 6538, in vitro.
Description: as §1, §2, §3, §4, §5

The subject of series [1] is Staph. epiderm. clin. The series can be described thus: Antimicrobic activity, in vitro (CIM), first clinical isolate. The class given is cell-based, Staph. epiderm. (isolated clinically).
Description: as §1, §2, §3, §4
(§6) ^(2) Clin. = Isolated clinically.

The test system of series [2] is Staph. epiderm. clin. The series can be described thus: Antimicrobic activity, in vitro (CIM), second clinical isolate. The format is cell-based, Staph. epiderm. (isolated clinically).
Description: as §1, §2, §3, §4, §6

In another series the test system is Micrococcus luteus 9341. As to the kind of experiment: Antimicrobic activity, in vitro (CIM). The class given is cell-based, Micrococcus luteus 9341 (ATCC). The settings on record: Micrococcus luteus 9341, in vitro.
Description: as §1, §2, §3, §4, §5

Another series deals with Strept. faecalis 8043. As to the kind of experiment: Antimicrobic activity, in vitro (CIM). The format is cell-based, Strept. faecalis 8043 (ATCC). The settings on record: Strept. faecalis 8043, in vitro.
Description: as §1, §2, §3, §4, §5

For a further series, the system named is Candida albicans. The series can be described thus: Antimicrobic activity, in vitro (CIM). The format is cell-based.
Description: as §1, §2, §3, §4

The subject of the next series is Escherichia coli 418. As to the kind of experiment: Antimicrobic activity, in vitro (CIM). The class given is cell-based. The settings on record: Escherichia coli 418, in vitro.
Description: as §1, §2, §3, §4

For the next series, the system named is Proteus vulgaris. As to the kind of experiment: Antimicrobic activity, in vitro (CIM). The format is cell-based.
Description: as §1, §2, §3, §4

The test system of another series is Pseudomonas aeruginosa. The series can be described thus: Antimicrobic activity, in vitro (CIM). The class given is cell-based.
Description: as §1, §2, §3, §4

A further series deals with Serr. marcescens cl. The series can be described thus: Antimicrobic activity, in vitro (CIM). The format is cell-based, Serr. marcescens (isolated clinically).
Description: as §1, §2, §3, §4, §6

Series [3] deals with staphylococcus aureus. The arrangement: unit not given beside the values. The conditions noted are these: intramuscular. The text has this: In Table 4, the activity data relating to the mucus production in the rabbit is reported, according to the method by Scuri et al., published in Boll. Chim.Farm.119, p.181, 1980.
The subject of a further series is rabbit mucoproduction. The series can be described thus: Activity on the rabbit mucoproduction (method of Scuri et al.). The format is in vivo.
Description: as §1
Activity on the rabbit mucoproduction.

The test system of a further series is rat. The series can be described thus: Oral acute toxicity in the rat. The format is in vivo.
Description: as §1
(§7) Oral acute toxicity in the rat

Series [4] concerns staphylococcus aureus. The arrangement: unit not given beside the values. The settings on record: oral, 1 treatment.
A short description of series [5]: Oral acute toxicity in the rat. The format is in vivo. The settings on record: in vivo, rat, read-out: DL50 (the source's name).
Description: as §1, §7

[6] abbreviates: Staphylococcus aureus, read-out: CIM (Mic, minimal inhibitory concentration).
The mark [7] stands for this setting: read-out: CIM (Mic, minimal inhibitory concentration).

Values after ≈ are worked out from the molar mass of the structure shown. Values joined by “and” are separate entries in the source; they are usually repeats but may differ in a detail not shown here. Equal entries are not always repeated. Where two headings read alike, the source gives them in different places. A value given as a limit tells only on which side of the number the result lay.

As for `CC[C@H]1OC(=O)[C@H](C)[C@@H](O[C@H]2C[C@@](C)(OC)[C@@H](O)[C@H](C)O2)[C@H](C)[C@@H](O[C@@H]2O[C@H](C)C[C@H](N(C)C)[C@H]2O)[C@](C)(O)C[C@@H](C)C(=O)[C@H](C)[C@@H](O)[C@]1(C)O.O=C(O)c1ccccc1C(=O)N1CCSC1` [CO/1316, erythromycin salt of o-carbonyl(1-thiazolidinyl)-benzoic acid], the “CIM (Mic, minimal inhibitory concentration)” value in the series on Staph. aureus 1414 amounted to 10 µg/mL; in the series with Staph. aureus 6538 it was 10 µg/mL; with Staph. epiderm. clin. [1], 10 µg/mL; in the series on Staph. epiderm. clin. [2], 0.1 µg/mL; with Micrococcus luteus 9341 it was 0.1 µg/mL; in the series with Strept. faecalis 8043 it was 0.6 µg/mL. Moreover, the “CIM (Mic, minimal inhibitory concentration)” value was 100 µg/mL in the series with Candida albicans; 50 µg/mL in the series on Escherichia coli 418; 5 µg/mL in the series on Proteus vulgaris; “+100 mcg/ml” in the series on Pseudomonas aeruginosa (in vitro); 100 µg/mL in the series on Serr. marcescens cl.. The DI50 is 76 and 152 with staphylococcus aureus [3] (medium infection, 5 treatments); 210 and 390 with staphylococcus aureus [3] (serious infection, 1 treatment); 350 and 510 with staphylococcus aureus [4] (medium infection); 560 and 720 in the series with staphylococcus aureus [4] (serious infection). Further, the “Anim. with increase / Treated anim.” value with rabbit mucoproduction (40 mg/kg ev) is listed as 9/14. Further, the “Anim. with increase / Treated anim., %” value in the series with rabbit mucoproduction (40 mg/kg ev) is on record as 64/2. In addition, the “Mucoproduction: Var. %” value with rabbit mucoproduction (40 mg/kg ev) is “+45%”. Moreover, the “acute oral toxicity compared with erythromycin base” value in the series on rat is “substantially coincides with that of the erythromycin base”. The same compound registered a DL50 in the series on rat (rat) greater than 5.0 g/kg. Further, the “Solubility in 95% ethanol” value (95% ethanol) came to 32%. Also, the Solubility in acetone (acetone) is 50%. The compound further yielded a Solubility in chloroform (chloroform) of 50%. Where the note is “dioxane”, the Solubility in dioxane amounted to 15%. Also, for the setting “ethanol”, the Solubility in ethanol amounted to 50%. The “Solubility in ethyl ether” value (ethyl ether) was found to be 0.1%. In addition, the Solubility in methanol (methanol) came to 57%. Besides, the Solubility in n-hexane entry (n-hexane) is on record as “pratically insoluble”. The compound further came in with a Solubility in toluene (toluene) of 0.3%. In addition, under “water, ambient temperature”, the Solubility in water was determined as 3 % W/V.
Take `CC[C@H]1OC(=O)[C@H](C)[C@@H](O[C@H]2C[C@@](C)(OC)[C@@H](O)[C@H](C)O2)[C@H](C)[C@@H](O[C@@H]2O[C@H](C)C[C@H](N(C)C)[C@H]2O)[C@](C)(O)C[C@@H](C)C(=O)[C@H](C)[C@@H](O)[C@]1(C)O` [Erythromycin]: the MIC was 10 µg/mL (≈ 13.6 µM) in the series with Staph. aureus 1414 (setting [6]); 10 µg/mL (≈ 13.6 µM) in the series with Staph. aureus 6538 (setting [6]); 10 µg/mL (≈ 13.6 µM) in the series with Staph. epiderm. clin. [1] (setting [7]); 0.1 µg/mL (≈ 0.136 µM) in the series with Staph. epiderm. clin. [2] (setting [7]); 0.1 µg/mL (≈ 0.136 µM) with Micrococcus luteus 9341 (setting [7]); 0.3 µg/mL (≈ 0.409 µM) in the series with Strept. faecalis 8043 (Enterococcus faecalis, read-out: CIM (Mic, minimal inhibitory concentration)). Besides, the MIC in the series on Candida albicans (setting [7]) was determined as 100 µg/mL (≈ 136 µM); in the series with Escherichia coli 418 (setting [7]), 25 µg/mL (≈ 34.1 µM); in the series with Proteus vulgaris (setting [7]), 2.5 µg/mL (≈ 3.41 µM); in the series on Pseudomonas aeruginosa (setting [7]), 100 µg/mL (≈ 136 µM); in the series with Serr. marcescens cl. (Serratia marcescens, read-out: CIM (Mic, minimal inhibitory concentration)), 50 µg/mL (≈ 68.1 µM). Further, in the series with rabbit mucoproduction (30 mg/kg ev), the “Anim. with increase / Treated anim.” value was 0/10. The “Mucoproduction: Var. %” value in the series on rabbit mucoproduction (30 mg/kg ev) was “Inactive”. In addition, the LD50 in [5] is greater than 5000 mg/kg.

The record behind these values is US4575496A, “Erythromycin salt of the o-carbonyl(1-thiazolidinyl)-benzoic acid and pharmaceutical compositions containing it” (Camillo Corvi S.p.A., priority 1983, dated 1986).
